Experimental data published in ChEMBL document CHEMBL4138108, “Novel amidino substituted benzimidazole and benzothiazole benzo[b]thieno-2-carboxamides exert strong antiproliferative and DNA binding properties” (Eur J Med Chem, 2017).
pIC50: −log10 of the molar value. Activity calls are given as the source filed them. The rule behind the calls is not given here.

Experiments:
[1] = test system: HepG2; test: Antiproliferative activity against human HepG2 cells after 72 hrs by MTT assay; format: functional, cell-based; settings: HepG2, 72 h
[2] = test system: CFPAC-1; test: Antiproliferative activity against human CFPAC-1 cells after 72 hrs by MTT assay; format: functional, cell-based; settings: CFPAC-1, 72 h
[3] = test system: Calf thymus DNA; test: Binding affinity to calf thymus duplex DNA assessed as change in melting temperature at drug to DNA ratio of 1 measured for every mins by spectrophotometric analysis; format: nucleic-acid assay; settings: Bos taurus
[4] = test system: SW-620; test: Antiproliferative activity against human SW620 cells after 72 hrs by MTT assay; format: functional, cell-based; settings: SW-620, 72 h
[5] = test system: HeLa; test: Antiproliferative activity against human HeLa cells after 72 hrs by MTT assay; format: functional, cell-based
[6] = test system: WI-38; test: Cytotoxicity against human WI38 cells after 72 hrs by MTT assay; format: cell-based; settings: WI-38, 72 h
[7] = molecular target: T1, DNA topoisomerase 1 (Homo sapiens) (UniProt P11387); test: Inhibition of human topoisomerase-1 assessed as increase in accumulation of supercoiled pUC19 DNA at 1 to 50 uM by ethidium bromide staining based agarose gel electrophoresis
T1 sequence (whole entry): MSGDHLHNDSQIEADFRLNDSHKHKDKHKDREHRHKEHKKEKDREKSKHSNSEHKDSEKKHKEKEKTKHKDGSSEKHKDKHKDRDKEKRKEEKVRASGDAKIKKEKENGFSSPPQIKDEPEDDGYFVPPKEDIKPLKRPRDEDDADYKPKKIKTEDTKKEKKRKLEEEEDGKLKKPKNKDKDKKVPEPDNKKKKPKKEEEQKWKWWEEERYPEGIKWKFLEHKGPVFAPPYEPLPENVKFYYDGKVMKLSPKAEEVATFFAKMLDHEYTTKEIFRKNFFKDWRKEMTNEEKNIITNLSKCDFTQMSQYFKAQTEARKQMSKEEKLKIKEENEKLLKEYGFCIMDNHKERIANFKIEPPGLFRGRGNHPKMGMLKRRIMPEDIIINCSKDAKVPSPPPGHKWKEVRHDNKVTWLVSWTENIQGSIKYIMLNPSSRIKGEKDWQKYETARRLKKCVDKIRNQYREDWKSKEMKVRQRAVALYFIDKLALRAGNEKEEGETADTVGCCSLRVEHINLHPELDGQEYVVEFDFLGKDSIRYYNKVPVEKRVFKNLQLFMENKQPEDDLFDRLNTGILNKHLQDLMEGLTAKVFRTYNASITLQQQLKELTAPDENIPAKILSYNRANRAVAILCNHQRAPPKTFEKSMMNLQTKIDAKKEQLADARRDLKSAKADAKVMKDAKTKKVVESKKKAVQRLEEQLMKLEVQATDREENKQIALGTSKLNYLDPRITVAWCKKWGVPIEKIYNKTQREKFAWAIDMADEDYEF

[8] = molecular target: T1, DNA topoisomerase 1 (Homo sapiens); test: Poison activity at human topoisomerase-1 assessed as increase in relaxation of supercoiled pUC19 DNA at 1 to 50 uM by ethidium bromide staining based agarose gel electrophoresis
[9] = test system: Calf thymus DNA; test: Binding affinity to calf thymus duplex DNA assessed as hyperchromic effect at drug to DNA ratio of 1 to 8 by UV-visible spectroscopic method; format: nucleic-acid assay; settings: Bos taurus
[10] = molecular target: T1, DNA topoisomerase 1 (Homo sapiens); test: Inhibition of human topoisomerase-1 assessed as increase in accumulation of supercoiled pUC19 DNA at 1 to 50 uM in absence of ethidium bromide staining by agarose gel electrophoresis
[11] = test system: Calf thymus DNA; test: Binding affinity to calf thymus duplex DNA assessed as hypochromic effect up to drug to DNA ratio of 1 by UV-visible spectroscopic method; format: nucleic-acid assay; settings: Bos taurus
[12] = Drug uptake in nucleus of human 786-O cells at 10 uM after 4 hrs by propidium iodide staining-based fluorescence microscopic analysis; format: ADME, subcellular; settings: 786-0, 4 h
[13] = test system: Calf thymus DNA; test: Binding affinity to calf thymus duplex DNA assessed as bathochromic shift at drug to DNA ratio of 1 to 8 by UV-visible spectroscopic method; format: nucleic-acid assay; settings: Bos taurus
[14] = test system: Calf thymus DNA; test: Binding affinity to calf thymus duplex DNA assessed as change in melting temperature at drug to DNA ratio of 0.5 measured for every mins by spectrophotometric analysis; format: nucleic-acid assay; settings: Bos taurus
[15] = test system: Calf thymus DNA; test: Binding affinity to calf thymus duplex DNA assessed as bathochromic shift up to drug to DNA ratio of 8 by UV-visible spectroscopic method; format: nucleic-acid assay; settings: Bos taurus
[16] = test system: Calf thymus DNA; test: Binding affinity to calf thymus duplex DNA assessed as hypochromic effect up to drug to DNA ratio of 8 by UV-visible spectroscopic method; format: nucleic-acid assay; settings: Bos taurus
[17] = test system: Calf thymus DNA; test: Binding affinity to calf thymus duplex DNA by CD spectrum analysis; format: nucleic-acid assay; settings: Bos taurus
[18] = test system: Calf thymus DNA; test: Binding affinity to calf thymus duplex DNA assessed as hyperchromic effect up to drug to DNA ratio of 8 by UV-visible spectroscopic method; format: nucleic-acid assay; settings: Bos taurus
[19] = Binding affinity to AT-rich site of 3'-end radiolabelled 265 bp pBS DNA at 0.01 to 10 uM after 15 mins by DNase I footprinting assay
[20] = test system: Calf thymus DNA; test: Binding affinity to calf thymus duplex DNA assessed as change in melting temperature at drug to DNA ratio of 0.25 measured for every mins by spectrophotometric analysis; format: nucleic-acid assay; settings: Bos taurus
[21] = molecular target: T1, DNA topoisomerase 1 (Homo sapiens); test: Poison activity at human topoisomerase-1 assessed as increase in relaxation of supercoiled pUC19 DNA at 50 uM by ethidium bromide staining based agarose gel electrophoresis

Compound | pIC50 [1] | ΔTm [3] [°C] | pIC50 [4] | pIC50 [5] | inhibition [7] | Activity [9] | inhibition [10] | Activity [11] | Drug uptake [12] | Activity [13] | ΔTm [14] [°C] | pIC50 [2] | pIC50 [6] | Activity [8] | further results
O=C(Nc1nc2ccccc2s1)c1sc2cc(C3=NCCN3)ccc2c1Cl | 4.85 |  | 5.15 | 5.94 | inactive |  |  |  |  |  |  | 5.30 | 5.37 | inactive | Activity [15]: inactive; Activity [16]: Active; Activity [17]: Dose-dependent effect; Activity [18]: inactive
Cl.Cl.O=C(Nc1nc2ccc(C3=NCCN3)cc2[nH]1)c1sc2cc(C3=NCCN3)ccc2c1Cl | < 4.00 |  | < 4.00 | < 4.00 | Active | Active | Active | Active | Active | Active | 16.6 | < 4.00 | 4.25 | inactive | Activity [19]: Active; ΔTm [20]: 14.6 °C
O=C(Nc1nc2ccc(C3=NCCN3)cc2s1)c1sc2cc(C3=NCCN3)ccc2c1Cl | 4.02 | 1.5 | 4.09 | 4.31 |  |  |  |  |  |  | 1 | 4.21 | 4.06 |  | 

Now those with a higher pIC50 [1], led by results:

pIC50 [1] | ΔTm [3] [°C] | pIC50 [4] | pIC50 [5] | inhibition [7] | Activity [9] | inhibition [10] | Activity [11] | Drug uptake [12] | Activity [13] | ΔTm [14] [°C] | Compound | pIC50 [2] | pIC50 [6] | Activity [8] | further results
5.61 | 6.3 | 5.26 | 5.64 | Active | Active | Active | Active | Active | Active | 3.7 | Cl.O=C(Nc1nc2ccccc2[nH]1)c1sc2cc(C3=NCCN3)ccc2c1Cl | 5.32 | 5.53 | inactive | 
5.65 | 2.4 | 5.21 | 5.58 | Active |  | Active | Active |  |  | 2.4 | O=C(Nc1nc2ccc([N+](=O)[O-])cc2[nH]1)c1sc2cc(C3=NCCN3)ccc2c1Cl | 5.16 | 5.39 | inactive | 
5.19 | 0.8 | 4.16 | 5.25 |  |  |  |  |  |  | -0.8 | O=C(Nc1nc2ccc(C3=NCCN3)cc2s1)c1sc2cc([N+](=O)[O-])ccc2c1Cl | 5.17 | < 4.00 |  | 
5.27 | 3.9 | 4.99 | 5.41 |  | Active |  | Active | Active | Active | 1.9 | Cl.O=C(Nc1nc2ccc(C3=NCCN3)cc2[nH]1)c1sc2ccccc2c1Cl | 4.68 | 5.00 |  | Activity [17]: Dose-dependent effect; Activity [21]: inactive
5.35 | -1.7 | 5.35 | 5.39 |  |  |  |  |  |  | -0.2 | O=C(Nc1nc2ccc(C3=NCCN3)cc2s1)c1sc2ccccc2c1Cl | 5.38 | 5.30 |  | 
